The results in this text go back to US5821353A, “DNA encoding 1,3 beta-D glucan synthase subunits” (Merck & Co., Inc., priority 1996, dated 1998).

Experiment [1] deals with S. cerevisiae MY2144 (fks 1-3). Description: MIC, growth inhibition. It counts as cell-based, Saccharomyces cerevisiae. Particulars: Saccharomyces cerevisiae, 24 h. As to the method:
(§1) Liquid broth microdilution assay
(§2) To quantitate the sensitivity of a particular strain of S. cerevisiae to a compound such as FK506, L-733,560, or nikkomycin Z, the following procedure was followed:
(§3) Dissolve drug of interest at 4× the desired initial concentration. For L-733,560, a 64 mcg/ml solution in sterile SD is prepared. Aliquot 75 mcL of the drug suspension into column 3. Using a multichannel pipettor, transfer 75 mcL from column 3 into column 4, pipet up and down three times to mix, and then transfer 75 mcL from column 4 into column 5. Repeat the serial dilution until column 12 is reached; after mixing, discard 75 mcL to waste.
(§4) Inoculate each strain in a given row by adding 75 mcL of the inoculum into columns 2 to 12. […] Column 2 serves as the no-drug or 100% growth control. The plate is then incubated overnight at 30° C. without shaking.
(§5) After approximately 24 hours of incubation, gently agitate the plate to resuspend the cells and read the absorbance at 600 nm wavelength. The % control growth for any given well can be calculated by dividing the absorbance value for that well by the value from column 2 in the same row. If this is done for each column, the data can be plotted as "Percent control growth" vs. "Drug concentration". The resulting dose-response curve can be used to compare the drug sensitivities of various strains.
(§6) The data in the following table are the minimum concentration of the various drugs required to inhibit the growth of each the mutants and their parent X2180-1A.

The test system of experiment [2] is S. cerevisiae MY2145. Description: MIC, growth inhibition. To be noted: Saccharomyces cerevisiae, MY2145, 24 h; read-out: MIC. It counts as cell-based, Saccharomyces cerevisiae. How it is done:
as §1, §2, §3, §4, §5, §6

Experiment [3] relates to S. cerevisiae X2180-1A. Description: MIC, growth inhibition. It counts as cell-based, Saccharomyces cerevisiae. To be noted: Saccharomyces cerevisiae, X21801A, 24 h, minimum concentration required to inhibit growth, read-out: MIC. How it is done:
as §1, §2, §3, §4, §5, §6

Experiment [4] relates to S. cerevisiae MS14 mutant. Description: disc diffusion drug resistance/sensitivity test. It counts as cell-based, Saccharomyces cerevisiae. How it is done:
Cells of the yeast strains MY2144 and MY2145 carrying the respective MS10 and MS14 mutations were grown overnight in YPAD and SC media. From the overnight cultures, cells were diluted 1:10 in the same media and allowed to further grow for 4-6 hrs. The drug resistance/sensitivity tests were conducted by the disc diffusion assay on plates containing 20 ml of solid YPAD or SC media and 3×10^6 cells. The cells were added to premelted media that was cooled to 50° C. before pouring onto plates. Sterile filter discs containing different drugs were placed on the surface of the plates followed by incubation at 28° C. for 1-2 days. Sizes of the zones of growth inhibition were measured as an indication of relative drug resistance/sensitivity. The MS14 mutant is supersensitive to the chitin synthesis inhibitor nikkomycin Z and resistant to the echinocandin L-733-560.
Background: A growth-free zone around the sample is the usual read-out of agar diffusion tests.

Experiment [5] has as its system chitin synthase from MY2144 (fks 1-3). Description: chitin synthase assay, membrane preparation. The class given is biochemical, Saccharomyces cerevisiae. To be noted: membranes of MY2144 (fks 1-3). How it is done: (§7) 125 mcg of the above extracts were trypsin activated and mixed with an equal volume (50 mcL) chitin synthase reaction cocktail, which included 0.5M Tris, pH 7.5, 40 mM MgCl, 320 microM GlcNAc, ^14 C-UDP-GlcNAc substrate mix, and 0.8% digitonin. After 30 minutes of incubation at 30° C., the incorporated ^14 C-[…] was precipitated with 10% trichloroacetic acid, collected onto Whatman glass microfiber GF/A disks and counted.
(§8) Crude enzyme preparations associated with cell membranes were tested for glucan and chitin synthesis activities. The sensitivity of the mutant 1,3-beta-D glucan synthase to L-733,560 and papulacandin was tested along with the sensitivity of the chitin synthases to nikkomycin Z.
(§9) The chitin synthase is not affected in its sensitivity to nikkomycin Z. The data in the following table show the IC50 s for the glucan synthase inhibitors (L-733,560 and papulacandin) and the chitin synthase inhibitor (nikkomycin Z) in 1,3-beta-D glucan synthase and chitin synthase assays, respectively. Equal amounts of membrane proteins were used to prime each reaction.

For experiment [6], the system named is chitin synthase from MY2145 (fks 1-4). Description: chitin synthase assay, membrane preparation. The class given is biochemical, Saccharomyces cerevisiae. Particulars: membranes of MY2145 (fks 1-4). How it is done: as §7, §8, §9
In experiment [7] the test system is chitin synthase from X2180-1A. Description: chitin synthase assay, membrane preparation. It counts as biochemical, Saccharomyces cerevisiae. To be noted: membranes of X2180-1A. How it is done:
as §7, §8, §9

≈ marks a conversion by molar mass, not a printed value.

As usually defined, the MIC is the lowest concentration that inhibits growth of the organism. A word on the IC50: it is the concentration that inhibits the measured activity by half. A low value points to greater potency.

As to `C[C@@H]([C@H](N)C(=O)N[C@H](C(=O)O)[C@H]1O[C@@H](n2ccc(=O)[nH]c2=O)[C@H](O)[C@@H]1O)[C@H](O)c1ccc(O)cn1` [Nikkomycin Z, nikkomycin Z], the MIC in experiment [1] was more than 100 µg/mL; in experiment [2], 0.2 µg/mL (≈ 0.404 µM); in experiment [3], more than 100 µg/mL. Also, the drug resistance/sensitivity phenotype result in experiment [4] was “supersensitive”. The half-maximal inhibitory concentration (IC50) in experiment [5] worked out at 0.60 µg/mL (≈ 1.21 µM); in experiment [6], 0.64 µg/mL (≈ 1.29 µM); in experiment [7], 0.74 µg/mL (≈ 1.49 µM).
